Assay results reported in PMC12036814 (Angewandte Chemie (International Ed. in English), 2025).

How the values were obtained:
[1] = tested on: IDH2 mRNA in PDL-hTERT cells; assay: Quantitative PCR of IDH2 mRNA; assay type: cell-based, human; parameters: dose or concentration left out as unconfirmed; conditions: […] µM, GAPDH housekeeper
[2] = tested on: periodontal ligament cell line (PDL‐hTERT); assay: Whole proteome analysis and pathway analysis of treated PDL-hTERT cells; assay type: cell-based, human; parameters: dose or concentration left out as unconfirmed; conditions: […] μM, 3 days, versus vehicle
SCARB1 = molecular target: T1, SCARB1 (Homo sapiens, UniProt Q8WTV0); assay: Microscale thermophoresis (MST) binding; conditions: aggregation/precipitation at high compound concentrations
T1 construct: purchased Hölzel Biotech SC1-H82E5
T1 sequence (Q8WTV0 1-552): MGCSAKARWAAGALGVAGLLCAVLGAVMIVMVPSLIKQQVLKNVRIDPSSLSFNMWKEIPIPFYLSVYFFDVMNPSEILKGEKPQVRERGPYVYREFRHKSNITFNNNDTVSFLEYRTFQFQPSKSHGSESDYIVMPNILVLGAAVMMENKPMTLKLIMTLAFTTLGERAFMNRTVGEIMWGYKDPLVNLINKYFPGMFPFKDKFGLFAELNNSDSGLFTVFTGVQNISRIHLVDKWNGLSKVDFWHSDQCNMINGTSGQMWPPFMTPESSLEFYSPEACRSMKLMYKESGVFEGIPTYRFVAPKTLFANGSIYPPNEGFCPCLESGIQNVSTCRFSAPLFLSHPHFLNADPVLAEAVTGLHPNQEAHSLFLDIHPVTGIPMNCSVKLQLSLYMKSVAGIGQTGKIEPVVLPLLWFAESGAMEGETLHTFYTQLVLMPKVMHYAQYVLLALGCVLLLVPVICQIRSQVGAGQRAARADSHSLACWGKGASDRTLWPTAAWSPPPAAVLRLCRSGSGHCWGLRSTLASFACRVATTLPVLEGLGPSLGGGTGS
Experimental: reaction was terminated by addition of 800 μL EtOAc+0.5% AcOH, 300 μL H2O and 100 μL internal standard (13,14-dihydro-15-ketoprostaglandin -d4, 300 pmol/sample, Cayman Chemical, Ann Arbor, USA, Cat# 10010606). Of the organic phase 600 μL was transferred into a fresh Eppendorf tube and the solvent removed in a SpeedVac. The residue was dissolved in 100 μL acetonitrile/ H2O (1:1) and measured with LC-MS/MS. Gradient: Solvent A = H2O + 0.1% formic acid, solvent B = acetonitrile + 0.5% formic acid, flow rate = 0 .4 mL/min, run length 6 min, gradient = 0 min 30% B, 1 min 30% B, 2 min 31.5% B, 2.1 min 95% B, 4 min 95% B, 4.1 min 30% B, 6 min 30% B. MS settings: Capillary = 3.0 kV, sampling cone = […], extraction cone […], source temperature = 100 °C, desolvat ion temperature = 350 °C, cone gas flow = 50.0 L/h, desolvation gas flow = 650.0 L/h, scan time = 0.250 s, inter-scan time = 0.020 s, mass range = 100 -800 Da. Masses of 15 -ketoprostaglandin (349.2 Da, collision energy = 21.0 eV), 13,14 -dihydro-15-ketoprostaglandin (351.2 Da, collision energy = 18.0 eV) and 13,14-dihydro-15-ketoprostaglandin (355.2 Da, collision energy = 10.0 eV) were set for MRM. The areas under the curve (AUC) were used to quantify 15 -keto-PGE2 and 13,14 -dihydro-15-keto-PGE2 levels by determining peak areas in relation to internal standard […]. The experiment was […]
Microscale thermophoresis (MST) was performed as follows: Monolith His -Tag Labeling Kit RED -tris-NTA 2nd Generation (NanoTemper Technologies, Munich, Germany, Cat# MO -L018) was used for KD determination as recommended by the purchaser. Briefly, SCARB1 ( Hölzel Biotech, Cologne, Germany, Cat# SC1-H82E5) concentration (50 nM) was adjusted in assay buffer and labelled by the RED -tris-NTA dye (100 nM). This mixture was added to compound dilution series (c = 1 mM to 30 nM) and measured using Monolith NT.115 (NanoTemper Technologies, Munich, Germany ). The experiment was performed once and analysed with the MO Affinity Analysis software (NanoTemper).
NUDT1 target validation efforts:
Recombinant NUDT1 expression & purification […]

[3] = tested on: HEK‐293 and PDL‐hTERT cells; assay: MTT assay, relative metabolic activity after 3 days; assay type: cell-based, human; conditions: 3 days of treatment
Experimental: Methods and Experimental Procedures
(Alfa Aesar, Haverhill, USA, Cat# J66943 ) stocks were prepared in sterile -filtered 0.1 N HCl to a
maximum concentration of 50 mM. HCl was used as vehicle control, diluted in culture medium, and
Cell culture experiments were performed in HEK 293, A549 or PDL-hTERT cells1 cultured in DMEM high
glucose medium supplemented with 10% FCS and 2 mM glutamine ( all, Sigma-Aldrich, St. Louis, USA,
Cat# G7513) in 5% CO2 atmosphere at 37 °C in Heracell 150i incubators (Thermo Fisher Scientific,
Waltham, USA). The human periodontal ligament (PDL -hTERT) cell line was provided by Prof. Denitsa
Docheva. During standard cell passaging accutase (Sigma-Aldrich) or 2,5x trypsin/0.5% EDTA in PBS
(Capricorn Scientific, Ebsdorfergrund, Germany) was used for cell detachment. Cell dishes in various
sizes (10 cm, 15 cm) and flasks (T75, T175) were used for cultivation (Sarstedt, Nümbrecht, Germany,
purchased from Thermo Fisher Scientific, Waltham, USA, Cat# 130184, 130188.
HEK or PDL-hTERT cells (1,5 x 10^3 cells/well) were seeded into 96 -well plates and grown for 24 h. […]
removed by suction and the formed formazan crystals dissolved in 200 μL DMSO. The read-out was
performed with an Infinite M200 Pro microplate reader (Tecan, Männedorf, Switzerland) at 570 nm
and background was subtracted at 630 nm. The absorbance values were normalized to DMSO/0.1 N […]

With `O=C(O)c1cn(C2CC2)c2cc(N3CCNCC3)c(F)cc2c1=O` [Ciprofloxacin] as the molecule, how does the “IDH2 mRNA levels versus vehicle control” value [1] read?
The value was “not significantly changed”.

And the “regulation of ETC complex I and IV subunits” value [2]?
Its value is “significant down‐regulation of complex I (blue) and complex IV (green) subunits of the ETC”.

And the “binding to SCARB1” value (SCARB1)?
Its value is “no binding affinity could be determined”.

And the “approximate apparent IC50 (metabolic activity, MTT)” value [3]?
Its value is “well above the reported plasma concentrations”.
